For assay [1], the target named is T1, FLT3-ITD (Homo sapiens, UniProt P36888).
T1 sequence (P36888 1-993): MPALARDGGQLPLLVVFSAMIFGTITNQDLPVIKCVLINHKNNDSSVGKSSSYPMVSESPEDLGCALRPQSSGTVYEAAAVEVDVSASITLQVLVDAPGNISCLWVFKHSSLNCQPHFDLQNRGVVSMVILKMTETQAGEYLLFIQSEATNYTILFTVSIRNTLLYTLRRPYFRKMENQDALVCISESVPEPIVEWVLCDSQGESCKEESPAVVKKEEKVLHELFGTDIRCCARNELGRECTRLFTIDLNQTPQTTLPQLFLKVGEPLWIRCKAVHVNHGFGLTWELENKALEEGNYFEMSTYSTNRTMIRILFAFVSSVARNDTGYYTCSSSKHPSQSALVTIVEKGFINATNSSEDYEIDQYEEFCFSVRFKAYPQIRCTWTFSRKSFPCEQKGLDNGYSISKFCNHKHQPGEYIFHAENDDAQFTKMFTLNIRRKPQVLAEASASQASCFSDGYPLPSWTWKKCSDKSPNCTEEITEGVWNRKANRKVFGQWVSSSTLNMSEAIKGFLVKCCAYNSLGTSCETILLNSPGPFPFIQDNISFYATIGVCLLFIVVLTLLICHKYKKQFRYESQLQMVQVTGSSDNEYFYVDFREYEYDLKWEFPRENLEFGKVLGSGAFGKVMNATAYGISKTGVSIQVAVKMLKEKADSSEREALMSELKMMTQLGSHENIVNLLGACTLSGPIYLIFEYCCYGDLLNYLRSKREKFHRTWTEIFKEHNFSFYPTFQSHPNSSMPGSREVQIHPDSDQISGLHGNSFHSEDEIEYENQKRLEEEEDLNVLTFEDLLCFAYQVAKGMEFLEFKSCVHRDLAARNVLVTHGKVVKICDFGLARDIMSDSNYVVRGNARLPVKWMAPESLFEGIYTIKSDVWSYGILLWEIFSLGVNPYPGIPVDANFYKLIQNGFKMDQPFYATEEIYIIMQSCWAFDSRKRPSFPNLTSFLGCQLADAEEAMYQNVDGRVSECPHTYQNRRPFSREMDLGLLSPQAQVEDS
The experiment in a line: Kinase inhibition assay with [γ-33P]ATP. Type of assay: biochemical. In outline: (§1)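 Radiometric [γ-33P]ATP assay in HEPES pH 7.5 with Mg2+/Mn2+: CDK1/Cyclin B (Sf9-expressed) and purchased CDK5/p35 with 1 mg/mL histone H1 at 15 and 0.15 μM ATP respectively; FLT3 WT and FLT3-ITD with AGLT substrate at 1 μM ATP. Reactions stopped with H3PO4, spotted onto phosphocellulose and washed.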

In assay [2] the target is T2, FLT3 WT (Homo sapiens, UniProt P36888).
T2 construct: purchased ProQinase GmbH
T2 sequence (P36888 27-993): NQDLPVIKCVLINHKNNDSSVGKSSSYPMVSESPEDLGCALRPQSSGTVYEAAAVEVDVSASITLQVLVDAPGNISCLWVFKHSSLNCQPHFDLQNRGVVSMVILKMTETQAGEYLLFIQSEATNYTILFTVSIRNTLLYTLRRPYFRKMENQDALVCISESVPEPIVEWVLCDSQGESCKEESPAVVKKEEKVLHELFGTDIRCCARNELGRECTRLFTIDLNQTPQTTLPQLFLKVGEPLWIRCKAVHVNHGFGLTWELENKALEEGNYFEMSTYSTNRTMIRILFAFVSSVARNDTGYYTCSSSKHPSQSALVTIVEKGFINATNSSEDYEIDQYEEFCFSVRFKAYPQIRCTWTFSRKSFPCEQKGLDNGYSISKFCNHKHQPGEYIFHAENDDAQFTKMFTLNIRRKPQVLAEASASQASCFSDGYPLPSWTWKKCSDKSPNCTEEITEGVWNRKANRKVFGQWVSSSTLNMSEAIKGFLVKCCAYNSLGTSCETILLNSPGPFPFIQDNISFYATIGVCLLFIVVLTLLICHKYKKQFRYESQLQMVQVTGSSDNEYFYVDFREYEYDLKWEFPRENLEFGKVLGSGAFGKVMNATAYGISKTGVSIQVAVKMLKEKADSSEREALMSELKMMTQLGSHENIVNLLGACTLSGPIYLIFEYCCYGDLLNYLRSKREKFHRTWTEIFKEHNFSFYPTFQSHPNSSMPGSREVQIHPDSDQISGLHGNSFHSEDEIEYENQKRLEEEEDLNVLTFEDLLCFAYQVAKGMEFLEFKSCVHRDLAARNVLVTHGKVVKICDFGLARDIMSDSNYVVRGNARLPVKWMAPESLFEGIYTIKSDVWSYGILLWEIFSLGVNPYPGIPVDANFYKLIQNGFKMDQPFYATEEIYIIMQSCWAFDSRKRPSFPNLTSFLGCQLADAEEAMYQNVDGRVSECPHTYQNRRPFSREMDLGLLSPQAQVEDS
Nature of the assay: Kinase inhibition assay with [γ-33P]ATP. The settings on record: AGLT substrate, 1 μM ATP. In kind it is biochemical. In outline:
as §1

Where [3] appears, read: AGLT substrate, 1 μM ATP, read-out: IC50 values (μM) FLT3 ITD.

Like-named read-outs stand apart in the source and are kept apart here.

Broadly, the IC50 is the concentration needed to halve the response being measured. Take `NC1CCC(Nc2nc(Nc3ccc(N4CCOCC4)cc3)c3ncn(C4CCCC4)c3n2)CC1` (stereo not drawn) [Compound 1]: the IC50 in assay [1] (setting [3]) stood at 0.002 µM; in assay [2], 0.023 µM.

For `NC1CCC(Nc2nc(Nc3ccc(CN4CCNCC4)cc3)c3ncn(C4CCCC4)c3n2)CC1` (stereo not drawn) [Compound 2], the concentration for half-maximal inhibition (IC50) was determined as 0.004 µM in assay [1] (setting [3]) and 0.015 µM in assay [2].

`CN1CCN(C(=O)c2ccc(Nc3nc(NC4CCC(N)CC4)nc4c3ncn4C3CCCC3)cc2)CC1` (stereo not drawn) [Compound 3]: the IC50 worked out at 0.007 µM in assay [1] (setting [3]) and 0.021 µM in assay [2].

Take `CN1CC2(C1)CN(c1ccc(Nc3nc(NC4CCC(O)CC4)nc4c3ncn4C3CCCC3)cc1)C2` (stereo not drawn) [Compound 7]: the half-maximal inhibitory concentration (IC50) in assay [1] (setting [3]) was 0.005 µM; in assay [2], 0.026 µM.

As to `NCCNc1nc(Nc2ccc(CN3CCNCC3)cc2)c2ncn(C3CCCC3)c2n1` [Compound 14], the 50% inhibitory concentration (IC50) was determined as 0.004 µM in assay [1] (setting [3]) and 0.014 µM in assay [2].

Consider `CN1CCN(C(=O)c2ccc(Nc3nc(NCCCCN)nc4c3ncn4C3CCCC3)cc2)CC1` [Compound 27], for which the half-inhibitory concentration (IC50) in assay [1] (setting [3]) was 0.002 µM; in assay [2], 0.019 µM.

Turning to `NCCCCNc1nc(Nc2ccc(N3CC4(COC4)C3)nc2)c2ncn(C3CCCC3)c2n1` [Compound 28], the IC50 turned out to be 0.003 µM in assay [1] (setting [3]) and 0.01 µM in assay [2].

On to `CN(C)CCNc1nc(Nc2ccc(CN3CCOCC3)nc2)c2ncn(C3CCCC3)c2n1` [Compound 172], for which the values for the half-maximal inhibitory concentration (IC50) in assay [1] (setting [3]) and in assay [2] were 0.003 µM and 0.011 µM, respectively.

Regarding `CN(C)CCCNc1nc(Nc2ccc(C(=O)N3CCOCC3)nc2)c2ncn(C3CCCC3)c2n1` [Compound 179], the figures for the half-inhibitory concentration (IC50) in assay [1] (setting [3]) and in assay [2] were 0.012 µM and 0.09 µM, respectively.

For `NC1CCC(Nc2nc(Nc3ccc(N4CCCC4)cc3)c3ncn(C4CCCC4)c3n2)CC1` (stereo not drawn) [Compound 263], the half-maximal inhibitory concentration (IC50) was 0.003 µM in assay [1] (setting [3]) and 0.021 µM in assay [2].

On to `NC1CCC(Nc2nc(Nc3ccc(CN4CCOCC4)cc3)c3ncn(C4CCCC4)c3n2)CC1` (stereo not drawn) [Compound 264], for which the IC50 was found to be 0.001 µM in assay [1] (setting [3]); 0.001 µM in assay [1] (comparative example, read-out: Influence of compounds on protein kinase inhibition, IC50 values (μM) FLT3 ITD); 0.013 µM in assay [2].

Turning to `NCCCCNc1nc(Nc2ccc(N3CCOCC3)cc2)c2ncn(C3CCCC3)c2n1` [Compound 265], the results for the IC50 in assay [1] (setting [3]) and in assay [2] were 0.004 µM and 0.023 µM, respectively.

For the molecule `CCN1CCN(c2ccc(Nc3nc(NCCCCN)nc4c3ncn4C3CCCC3)cc2)CC1` [Compound 266], the concentration for half-maximal inhibition (IC50) in assay [1] (setting [3]) turned out to be 0.002 µM; in assay [2] it was 0.013 µM.

Turning to `NCCCCNc1nc(Nc2ccc(CN3CCOCC3)cc2)c2ncn(C3CCCC3)c2n1` [Compound 270], the IC50 in assay [1] (setting [3]) came to 0.002 µM; in assay [2] it was 0.006 µM.

In the case of `NC1CCC(Nc2nc(Nc3ccc(N4CC5(COC5)C4)cc3)c3ncn(C4CCCC4)c3n2)CC1` (stereo not drawn) [Compound 272], the IC50 in assay [2] is 0.013 µM.

(Values after US11028087B2, “2,6-disubstituted-9-cyclopentyl-9H-purines, use thereof as medicaments, and pharmaceutical compositions” (UNIVERZITA PALACKEHO V OLOMOUCI, priority 2017, dated 2021).)
